In US20220096592A1, “PIC1 VARIANTS WITH IMPROVED SOLUBILITY AND METHODS OF USING THE SAME” (priority 2019, published 2022):
“Also recorded” adds a separate entry of the source. Where a SMILES comes first, the peptide text is derived from it. [ ]: non-standard residue; d: D form. Sar = CNCC(=O)O

Columns and labels:
[1] = Total Antioxidant Capacity (TAC) assay; settings: 0.03-0.25 mM, copper reducing equivalents, FIG. 4
Protocol: The TAC (Total Antioxidant Capacity) Assay (Cell Biolabs, Inc. San Diego, Calif.) was used to measure the antioxidant capacity of the sarcosine variants based on the reduction of copper (II) to copper (I). The assay was performed according to the recommended kit protocol.
Antioxidant activity was measured in copper reducing equivalents (CRE). Peptides were tested over a range of concentrations from 0.03-0.25 mM then compared to the standard.

C1q = target: T1, C1q (Homo sapiens, UniProt P02745+P02746+P02747); test: ELISA-type assay of peptide binding to C1q; settings: binding curves and half-maximal binding, FIG. 1C, 1D; listed as 18
T1 construct: purchased Complement Technology (Tyler, Tex.)
Protocol: (§1) The plates were washed with PBST (phosphate buffered saline+0.1% Tween) and then blocked with 1% gelatin/PBS for 2 hours at room temperature. After washing, the plates were incubated with PA or sarcosine variant peptides starting at 2.5 mg/ml and then serially diluted in 1% gelatin/PBS for 1 hour at room temperature. After washing, the plates were probed with rabbit anti-PA (developed with Cocalico Biologicals, Reamstown, Pa.) at 1:1000 in 1% gelatin/PBS for 1 hour, room temperature, followed by a goat anti-rabbit HRP (Sigma Aldrich, St Louis, Mo.) at 1:1,000 in 1% gelatin/PBS for 1 hour at room temperature with a washing step in between. Wells were developed using TMB substrate solution, stopped using 1 N H2SO4, and read at 450 nm in a plate reader.
Higher concentrations of DMSO interfere with the detecting reagents resulting in a partial binding curve.

MPO = target: T2, MPO (Homo sapiens, UniProt P05164); test: plate-based assay of binding to solid phased MPO; settings: binding curves and half-maximal binding, FIG. 2C, 2D
T2 construct: purchased Lee BioSolutions (Maryland Heights, Mo.)
Protocol: as §1
A plate-based assay was performed to test the binding of the peptide variants to solid phased MPO. MPO binding was identified for all variants, except for C9,10.

[2] = tested on: antibody-initiated complement activation (ABO incompatible hemolysis)
Protocol: (§2) For hemolytic complement assays, human red blood cells (RBCs) from type AB donors were purified, washed and standardized to 1×10^9 cells/ml, as previously described. Human sera from type 0 donors at a 20% final concentration was combined with […] PIC1 or sarcosine variant peptides, and the volume was brought up to 0.15 ml with GVBS^++ and […] RBCs. For factor B-depleted sera hemolytic assays, a final of 0.005% factor B depleted sera was incubated with […] PIC1 or sarcosine variant peptides with 0.1 ml antibody-sensitized sheep red blood cells (EA) in a final volume of 0.75 ml GVBS^++. The samples were incubated for one hour at 37° C. Then, 1.0 ml of GVBS^−− was added to the factor B-depleted samples to stop the reaction. The samples were spun at 3,000 rpm for 5 minutes. The supernatant was then collected and read at 412 nm. An analysis was performed to represent the values as a percent of the positive control, which consists of human 0 sera and AB red blood cells in GVBS^++ buffer.
(§3) An evaluation of the extent to which the peptide variants inhibit antibody-initiated complement activation was performed. The peptide variants were tested in the following two hemolytic assays: (i) an ABO incompatibility ex vivo assay and (ii) a classical pathway CH50-type assay in factor B-depleted sera.
In the ABO incompatibility hemolytic assay, purified erythrocytes from a ‘type AB+’ donor were incubated with sera from a ‘type 0’ subject containing anti-A and anti-B antibodies; peptides were tested at 1.8 mM.

myeloperoxidase (MPO) = target: T3, myeloperoxidase (MPO) (Homo sapiens, UniProt P05164); test: MPO peroxidase activity, TMB-based assay; format: biochemical; settings: dose-response and half-maximal inhibition, FIG. 2A, 2B
T3 construct: purchased Lee BioSolutions (Maryland Heights, Mo.)
Protocol: PIC1 and sarcosine variants were diluted to 25 mg/ml and then serially titrated in a 96 well plate at a volume of 0.02 ml. Myeloperoxidase (MPO) was diluted to 20 μg/ml and 0.02 ml was added to the titrated peptides. TMB (3,3′,5,5′-tetramethylbenzidine) (0.1 ml) was added to each well for 2 minutes, followed by 0.1 ml of 2.5 N H2SO4 for another 2 minutes, and then read on a 96 well plate reader (BioTek) at 450 nm.
In this assay, the variants were tested for MPO inhibition over a range of concentrations. Strong MPO inhibition was found for all variants with the exception of the no-cysteine variant (C9,10).

[3] = tested on: classical complement pathway; settings: peptides at 0.4 mM, compared with PA-dPEG24, FIG. 1B
Protocol: as §2, §3
A CH50-type hemolytic assay was then performed. with antibody-sensitized sheep erythrocytes, isolating the classical pathway by utilizing factor B-depleted sera; peptides were tested at 0.4 mM.

MPO heme ring = target: T4, MPO heme ring (Homo sapiens, UniProt P05164); test: MPO heme ring oxidative degradation (absorbance 300-550 nm); format: biochemical; settings: peptides at 3 mM, with H2O2, FIG. 3A-3H
T4 construct: purchased Lee BioSolutions (Maryland Heights, Mo.)
Protocol: In a 96 well plate, 0.025 ml of 1.7 mg/ml MPO was combined with 0.00125 ml of 0.5% H2O2 and 3 mM PIC1 or sarcosine variant peptides in a total volume of 0.125 ml PBS and left to incubate at room temperature for 2 minutes. Using a 96 well plate reader, the wells were scanned for absorbance from 300-550 nm to generate curves reflecting the iron state in the MPO heme ring, as previously reported.
The ability of the variants to prevent degradation of the heme ring in the MPO molecule was then evaluated. […] Degradation of the heme ring can be evaluated via spectrometric measurements of absorption of wavelengths from 300 to 550 nm.

purified C1q = purified C1q (UniProt P02745); test: cell-based or functional assay
Sequence of purified C1q (P02745 23-245 limits assumed, chain 1 of 3): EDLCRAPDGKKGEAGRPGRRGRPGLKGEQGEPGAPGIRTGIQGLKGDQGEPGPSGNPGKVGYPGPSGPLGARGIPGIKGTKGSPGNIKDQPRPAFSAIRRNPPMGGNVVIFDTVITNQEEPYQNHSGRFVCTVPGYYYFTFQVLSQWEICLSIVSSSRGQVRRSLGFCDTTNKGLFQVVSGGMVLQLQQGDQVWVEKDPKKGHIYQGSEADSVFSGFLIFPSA
Sequence of purified C1q (P02746 28-253 limits assumed, chain 2 of 3, further chain): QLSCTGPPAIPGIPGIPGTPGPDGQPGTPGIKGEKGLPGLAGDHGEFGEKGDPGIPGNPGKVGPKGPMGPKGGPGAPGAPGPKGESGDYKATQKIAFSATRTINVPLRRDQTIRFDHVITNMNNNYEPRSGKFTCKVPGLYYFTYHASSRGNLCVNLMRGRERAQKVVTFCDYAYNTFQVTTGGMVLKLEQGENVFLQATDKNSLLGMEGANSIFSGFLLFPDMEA
Sequence of purified C1q (P02747 29-245 limits assumed, chain 3 of 3, further chain): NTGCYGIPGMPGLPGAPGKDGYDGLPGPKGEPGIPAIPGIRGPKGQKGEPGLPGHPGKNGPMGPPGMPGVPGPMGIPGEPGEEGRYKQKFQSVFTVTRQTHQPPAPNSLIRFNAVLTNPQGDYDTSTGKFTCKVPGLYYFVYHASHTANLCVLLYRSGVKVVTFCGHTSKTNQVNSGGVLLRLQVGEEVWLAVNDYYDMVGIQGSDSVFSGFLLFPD

T1 sequence (P02745 23-245): as the sequence (P02745 23-245 limits assumed, chain 1 of 3) above
T1 sequence (P02746 28-253): as the sequence (P02746 28-253 limits assumed, chain 2 of 3, further chain) above
T1 sequence (P02747 29-245): as the sequence (P02747 29-245 limits assumed, chain 3 of 3, further chain) above
T4 sequence (P05164 279-745 limits assumed): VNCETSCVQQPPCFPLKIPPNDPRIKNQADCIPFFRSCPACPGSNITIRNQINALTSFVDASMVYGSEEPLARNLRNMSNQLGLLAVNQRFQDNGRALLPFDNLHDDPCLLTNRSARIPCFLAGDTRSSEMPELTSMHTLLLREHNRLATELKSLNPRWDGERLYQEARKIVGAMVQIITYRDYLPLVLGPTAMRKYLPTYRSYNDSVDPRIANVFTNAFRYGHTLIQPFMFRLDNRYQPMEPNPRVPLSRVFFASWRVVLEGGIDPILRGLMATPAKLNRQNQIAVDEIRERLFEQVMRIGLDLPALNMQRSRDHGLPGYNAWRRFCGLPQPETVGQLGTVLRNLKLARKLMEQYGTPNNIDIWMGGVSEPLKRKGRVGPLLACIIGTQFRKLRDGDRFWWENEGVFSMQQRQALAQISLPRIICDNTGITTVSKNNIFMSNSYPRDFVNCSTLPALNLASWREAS
T4 sequence (P05164 165-273 limits assumed): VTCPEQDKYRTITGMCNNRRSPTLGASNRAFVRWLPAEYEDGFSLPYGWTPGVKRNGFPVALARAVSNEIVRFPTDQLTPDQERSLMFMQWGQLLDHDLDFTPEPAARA
T3 sequence (P05164 279-745 limits assumed): as the sequence (P05164 279-745 limits assumed) above
T3 sequence (P05164 165-273 limits assumed): as the sequence (P05164 165-273 limits assumed) above
T2 sequence (P05164 279-745 limits assumed): as the sequence (P05164 279-745 limits assumed) above
T2 sequence (P05164 165-273 limits assumed): as the sequence (P05164 165-273 limits assumed) above

Compound	total antioxidant capacity, in words [1]	binding to C1q, in words (C1q)	binding to MPO, in words (MPO)	complement inhibition overall, in words ([2]; both hemolytic complement inhibition assays)	inhibition of ABO incompatible hemolysis, in words ([2]; peptides at 1.8 mM, compared with PA-dPEG24, FIG. 1A)	MPO inhibition, in words (myeloperoxidase (MPO))	inhibition of classical pathway hemolysis, in words [3]	inhibition of heme ring degradation, in words (MPO heme ring)	inhibition of classical pathway hemolysis in factor B-depleted sera, more than PA-dPEG24 (peptides at 0.4 mM) (purified C1q) [%]
CC[C@H](C)[C@H](N)C(=O)N[C@@H](C)C(=O)N[C@@H](CC(C)C)C(=O)N[C@H](C(=O)N[C@@H](CC(C)C)C(=O)N[C@@H](CCC(=O)O)C(=O)N1CCC[C@H]1C(=O)N(C)CC(=O)N[C@@H](CS)C(=O)N[C@@H](CS)C(=O)N[C@@H](CCC(N)=O)C(=O)N[C@@H](CCC(=O)O)C(=O)N[C@@H](CCCNC(=N)N)C(=O)N[C@@H](C)C(=O)N[C@@H](C)C(=O)O)[C@@H](C)CC [I8, H2N-IALILEP(Sar)CCQERAA-OH] (H-IALILEP[Sar]CCQERAA-OH)	antioxidant capacity approaching that of PA-dPEG24	superior binding to C1q as compared with the other peptides; also recorded: slightly superior to that of PA-dPEG24	superior binding to MPO, as compared with the other sarcosine variants	superior inhibition of antibody-initiated complement activation and hemolysis compared with PA and other peptide variants	inhibited ABO incompatible hemolysis to a greater extent than did the PA-dPEG24	greatest potency among the different variants	superior activity	near perfect preservation of the heme ring absorption spectrum	–
PA-I8Sar (H2N-IALILEP(Sar)CCQERAA-OH) (peptide)	–	–	–	–	–	–	–	–	75
